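Protocol summary: plate cells (96-well), add compound at 5 concentrations, incubate 48 h, interpolate endpoints linearly. Here, GI50 denotes the concentration required for 50% inhibition of growth.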 Activity calls are given as the source filed them. No stated cut-off is given here; in the data, active = GI50 up to about 1.1 µM and inactive = higher.
Key:
Assay in all cases: NCI anticancer screen, dose series, 48 h
[1] = system: HL-60
[2] = system: HOP-62
[3] = system: K562
[4] = system: Malme-3M
[5] = system: NCI-H460
[6] = system: OVCAR-4
[7] = system: OVCAR-5
[8] = system: SF-295
[9] = system: SK-MEL-5
[10] = system: SK-OV-3
[11] = system: SN12C
[12] = system: SW-620
[13] = system: UO-31
[14] = system: NCI-H522
[15] = system: SNB-75

| Structure (SMILES) | GI50 [1] | GI50 [2] | GI50 [3] | GI50 [4] | GI50 [5] | GI50 [6] | GI50 [7] | GI50 [8] | GI50 [9] | GI50 [10] | GI50 [11] | GI50 [12] | GI50 [13] | GI50 [14] | GI50 [15] |
| --- | --- | --- | --- | --- | --- | --- | --- | --- | --- | --- | --- | --- | --- | --- | --- |
| O=[N+]([O-])c1cc(-c2nnc(S)[nH]2)ccc1O | > 100 µM (inactive) | > 100 µM (inactive) | > 100 µM (inactive) | > 100 µM (inactive) | 44.4 µM (inactive) | > 100 µM (inactive) | > 100 µM (inactive) | > 100 µM (inactive) | > 100 µM (inactive) | > 100 µM (inactive) | > 100 µM (inactive) | 4.06 µM (inactive) | > 100 µM (inactive) |  |  |
| COc1cc2nc(-c3cccc(N(C)C)c3)cc(O)c2cc1OC | 2.7 µM (inactive) | 3.02 µM (inactive) | 3.62 µM (inactive) | 2.23 µM (inactive) | 3.94 µM (inactive) | > 100 µM (inactive) | 5.18 µM (inactive) | 2.58 µM (inactive) | 4.36 µM (inactive) | 3.7 µM (inactive) | 7.67 µM (inactive) | 4.09 µM (inactive) | 5.65 µM (inactive) | 2.81 µM (inactive) |  |
| O=C1CCC2(c3ccccc3)OCC([C@@H](O)c3ccccc3)N12 (some centres not stated) |  | > 100 µM (inactive) | > 100 µM (inactive) | > 100 µM (inactive) | > 100 µM (inactive) | > 100 µM (inactive) | > 100 µM (inactive) | > 100 µM (inactive) | > 100 µM (inactive) |  | > 100 µM (inactive) | > 100 µM (inactive) |  |  | > 100 µM (inactive) |
| Clc1ccc2[nH]c(CCSCCc3nc4ccc(Cl)cc4[nH]3)nc2c1 | 0.491 µM (active) | 15.2 µM (inactive) | 16.8 µM (inactive) |  | 15.1 µM (inactive) | 14.2 µM (inactive) | 12.4 µM (inactive) | 7.62 µM (inactive) | 5.87 µM (inactive) | 18.1 µM (inactive) | 14.4 µM (inactive) | 14 µM (inactive) | 11.4 µM (inactive) | 12.2 µM (inactive) | 19.5 µM (inactive) |
| O=c1cc(-c2ccccc2)[nH]c2cc(Cl)cc(Cl)c12 | > 100 µM (inactive) | 25.8 µM (inactive) | 7.31 µM (inactive) | 20.6 µM (inactive) | 59 µM (inactive) | 20.5 µM (inactive) | > 100 µM (inactive) | 27 µM (inactive) | 37.8 µM (inactive) | 23.6 µM (inactive) | 69 µM (inactive) | > 100 µM (inactive) | 84.7 µM (inactive) | 12.1 µM (inactive) | 10.3 µM (inactive) |
| Nc1ccc(O)c2c1C(=O)c1c(N)ccc(O)c1C2=O | > 100 µM (inactive) | > 100 µM (inactive) | > 100 µM (inactive) | > 100 µM (inactive) | > 100 µM (inactive) | > 100 µM (inactive) | > 100 µM (inactive) | > 100 µM (inactive) | > 100 µM (inactive) | > 100 µM (inactive) | > 100 µM (inactive) | > 100 µM (inactive) | > 100 µM (inactive) | > 100 µM (inactive) | > 100 µM (inactive) |
| Nc1ccc2c(c1)C(=O)N(OS(=O)(=O)c1ccccc1)C2=O | 46.5 µM (inactive) | > 100 µM (inactive) | 86.1 µM (inactive) | 94.4 µM (inactive) | > 100 µM (inactive) | > 100 µM (inactive) | > 100 µM (inactive) | > 100 µM (inactive) | > 100 µM (inactive) | > 100 µM (inactive) | > 100 µM (inactive) | 49.8 µM (inactive) | > 100 µM (inactive) | 21.5 µM (inactive) | > 100 µM (inactive) |
| COc1cc(NCC(C#N)C#N)ccc1/N=N/c1ccc(Cl)cc1 |  | 19.9 µM (inactive) | 22.1 µM (inactive) | 35.2 µM (inactive) | 23.2 µM (inactive) | 37.1 µM (inactive) | 21.8 µM (inactive) | 22.3 µM (inactive) | 23 µM (inactive) | 29.9 µM (inactive) | 38.8 µM (inactive) | 20.8 µM (inactive) | 16.9 µM (inactive) | 16.6 µM (inactive) | 31.6 µM (inactive) |
| COC(=O)C1CC(C(=O)OC)c2nc3cc(C)c(C)cc3nc21 (configuration not stated) | > 100 µM (inactive) | > 100 µM (inactive) | > 100 µM (inactive) | > 100 µM (inactive) | > 100 µM (inactive) | > 100 µM (inactive) | > 100 µM (inactive) | > 100 µM (inactive) | > 100 µM (inactive) | > 100 µM (inactive) | > 100 µM (inactive) | > 100 µM (inactive) | > 100 µM (inactive) | > 100 µM (inactive) | 36.3 µM (inactive) |
| CC(C)C1CNC2N1C(=O)C2(C)OCc1ccccc1 (configuration not stated) | > 100 µM (inactive) | > 100 µM (inactive) | > 100 µM (inactive) | > 100 µM (inactive) | > 100 µM (inactive) | > 100 µM (inactive) |  | > 100 µM (inactive) | > 100 µM (inactive) |  | > 100 µM (inactive) | > 100 µM (inactive) | 81.5 µM (inactive) |  | 48.2 µM (inactive) |
| O=C(O)c1ccc([Se][Se]c2ccc(C(=O)O)cc2)cc1 |  |  |  | 26.1 µM (inactive) | 6.65 µM (inactive) | 19.2 µM (inactive) | 23.5 µM (inactive) | 23.6 µM (inactive) |  |  | 37.5 µM (inactive) | 32.4 µM (inactive) | 29.9 µM (inactive) | 23.6 µM (inactive) | 33.9 µM (inactive) |
| O=C(/C=C/c1c(O)ccc2ccccc12)c1cccc(O)c1 | 20.7 µM (inactive) | > 100 µM (inactive) | 44.3 µM (inactive) | 59.8 µM (inactive) | > 100 µM (inactive) | > 70 µM (inactive) | > 100 µM (inactive) | > 100 µM (inactive) | 50.4 µM (inactive) | > 100 µM (inactive) | > 100 µM (inactive) | > 100 µM (inactive) | > 100 µM (inactive) | 63.4 µM (inactive) | 71.6 µM (inactive) |
| O=C1C2=C(c3ccccc31)C(c1ccc([N+](=O)[O-])cc1)NC(S)=N2 (configuration not stated) | 35.6 µM (inactive) | > 100 µM (inactive) | 49.1 µM (inactive) | 80.7 µM (inactive) | 67.8 µM (inactive) | 42.6 µM (inactive) | > 100 µM (inactive) | 58.6 µM (inactive) | 27.4 µM (inactive) | > 100 µM (inactive) | 47.4 µM (inactive) | 81.1 µM (inactive) | 31.8 µM (inactive) | 30.5 µM (inactive) | 23.9 µM (inactive) |
| N#CNc1nc(C(=O)Nc2ccc(Cl)cc2)cc(-c2ccccc2)n1 | > 100 µM (inactive) | > 100 µM (inactive) | > 100 µM (inactive) | > 100 µM (inactive) |  | > 100 µM (inactive) | > 100 µM (inactive) | > 100 µM (inactive) | > 100 µM (inactive) |  | > 100 µM (inactive) | > 100 µM (inactive) | > 100 µM (inactive) |  | > 100 µM (inactive) |
| CC1CC(=O)C(CC(=O)O)[C@H]1C(C(=O)C(=O)Nc1cc(Cl)ccc1Cl)[N+](=O)[O-] (some centres not stated) | > 100 µM (inactive) | > 100 µM (inactive) | > 100 µM (inactive) |  | > 100 µM (inactive) |  | > 100 µM (inactive) | > 100 µM (inactive) | > 100 µM (inactive) | > 100 µM (inactive) | > 100 µM (inactive) | > 100 µM (inactive) | > 100 µM (inactive) | > 100 µM (inactive) | 85.9 µM (inactive) |
| CCOc1ccccc1/N=N/c1ccc2oc(=O)c(C(C)=O)cc2c1 | > 100 µM (inactive) | > 100 µM (inactive) | > 100 µM (inactive) | > 100 µM (inactive) | > 10 µM (inactive) | > 100 µM (inactive) | > 100 µM (inactive) | 41.4 µM (inactive) | > 100 µM (inactive) | > 100 µM (inactive) | > 100 µM (inactive) | > 100 µM (inactive) | > 100 µM (inactive) | 58.9 µM (inactive) | 16 µM (inactive) |
| O=C(O)C1OC(Oc2cc(O)c3c(=O)cc(-c4ccc(O)cc4)oc3c2)C(O)C(O)C1O (configuration not stated) | > 100 µM (inactive) | > 100 µM (inactive) |  | > 100 µM (inactive) | > 100 µM (inactive) | > 100 µM (inactive) | > 100 µM (inactive) | > 100 µM (inactive) | > 100 µM (inactive) |  | > 100 µM (inactive) | > 100 µM (inactive) | > 100 µM (inactive) | > 100 µM (inactive) | > 100 µM (inactive) |
| Cc1cc(Cl)ccc1NC1=NC(=O)C(CC(=O)Nc2ccc(Cl)cc2Cl)S1 (configuration not stated) |  | > 100 µM (inactive) | > 100 µM (inactive) | > 100 µM (inactive) | > 100 µM (inactive) | > 100 µM (inactive) | > 100 µM (inactive) | > 100 µM (inactive) | > 100 µM (inactive) | > 100 µM (inactive) | > 100 µM (inactive) | > 100 µM (inactive) | > 100 µM (inactive) |  | > 100 µM (inactive) |
| COc1cc(O)c2c(c1O)C(=O)c1cc(C)ncc1C2=O | 17.7 µM (inactive) | 28.8 µM (inactive) | 20 µM (inactive) | 9.71 µM (inactive) | 13.8 µM (inactive) | 35.4 µM (inactive) | 44.9 µM (inactive) | 19 µM (inactive) | 11.6 µM (inactive) | 9.89 µM (inactive) | 17.9 µM (inactive) | 20.2 µM (inactive) | 14.3 µM (inactive) | 27 µM (inactive) | 20.3 µM (inactive) |
| COC(=O)C1=CCON(c2ccccc2)C1c1ccccc1 (configuration not stated) | 24.9 µM (inactive) | > 100 µM (inactive) | 40.4 µM (inactive) | 48.1 µM (inactive) | 48.2 µM (inactive) | > 10 µM (inactive) | 94.2 µM (inactive) |  |  | 53 µM (inactive) | > 10 µM (inactive) | 70.5 µM (inactive) | 36.1 µM (inactive) | 20.7 µM (inactive) | 49.5 µM (inactive) |
